The supplement of paper PMC10307832

What was measured:
Experiment in all cases: relative viability (nuclei count vs DMSO), 5 days (fraction); higher = more cells survive
FH535 + Pictilisib = compound: CC1=C(C=CC(=C1)[N+](=O)[O-])NS(=O)(=O)C2=C(C=CC(=C2)Cl)Cl [FH535] + CS(=O)(=O)N1CCN(Cc2cc3nc(-c4cccc5[nH]ncc45)nc(N4CCOCC4)c3s2)CC1 [Pictilisib] (partner 1 µM)
In short: (§1)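 Relative viability divides the nuclei count in treated wells by that in vehicle wells. Lung cancer cell lines were seeded in 1536-well plates, dosed by pin tool the next day, and fixed and stained after 5 days in one step with final 0.05% Triton X-100, 1% formaldehyde and 1 ug/ml Hoechst. Dosing was a single drug or a fixed anchor-drug dose plus five library-drug doses (not always all listed) in √10 steps, and values are medians of duplicate plates imaged at 4×.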

FH535 + Dasatinib = compound: CC1=C(C=CC(=C1)[N+](=O)[O-])NS(=O)(=O)C2=C(C=CC(=C2)Cl)Cl [FH535] + Cc1nc(Nc2ncc(C(=O)Nc3c(C)cccc3Cl)s2)cc(N2CCN(CCO)CC2)n1 [Dasatinib] (partner 0.075 µM)
In short: as §1

FH535 + Lapatinib = compound: CC1=C(C=CC(=C1)[N+](=O)[O-])NS(=O)(=O)C2=C(C=CC(=C2)Cl)Cl [FH535] + CS(=O)(=O)CCNCc1ccc(-c2ccc3ncnc(Nc4ccc(OCc5cccc(F)c5)c(Cl)c4)c3c2)o1 [Lapatinib] (partner 2 µM)
In short: as §1

FH535 + Phenformin = compound: CC1=C(C=CC(=C1)[N+](=O)[O-])NS(=O)(=O)C2=C(C=CC(=C2)Cl)Cl [FH535] + N=C(N)NC(=N)NCCc1ccccc1 [Phenformin] (partner 250 µM)
In short: as §1

FH535 + Alpelisib = compound: CC1=C(C=CC(=C1)[N+](=O)[O-])NS(=O)(=O)C2=C(C=CC(=C2)Cl)Cl [FH535] + Cc1nc(NC(=O)N2CCC[C@H]2C(N)=O)sc1-c1ccnc(C(C)(C)C(F)(F)F)c1 [Alpelisib] (partner 2 µM)
In short: as §1

Cell Line | relative viability (FH535 + Pictilisib; first compound 0.04 µM) | relative viability (FH535 + Pictilisib; first compound 0.1265 µM) | relative viability (FH535 + Pictilisib; first compound 0.4 µM) | relative viability (FH535 + Pictilisib; first compound 1.265 µM) | relative viability (FH535 + Dasatinib; first compound 0.1265 µM) | relative viability (FH535 + Dasatinib; first compound 0.4 µM) | relative viability (FH535 + Dasatinib; first compound 1.265 µM) | relative viability (FH535 + Lapatinib; first compound 0.04 µM) | relative viability (FH535 + Lapatinib; first compound 0.1265 µM) | relative viability (FH535 + Lapatinib; first compound 0.4 µM) | relative viability (FH535 + Lapatinib; first compound 1.265 µM) | relative viability (FH535 + Phenformin; first compound 0.1265 µM) | relative viability (FH535 + Phenformin; first compound 0.4 µM) | relative viability (FH535 + Phenformin; first compound 1.265 µM) | relative viability (FH535 + Alpelisib; first compound 0.04 µM) | relative viability (FH535 + Alpelisib; first compound 0.1265 µM) | relative viability (FH535 + Alpelisib; first compound 0.4 µM) | relative viability (FH535 + Alpelisib; first compound 1.265 µM) | relative viability (FH535 + Dasatinib; first compound 0.04 µM) | relative viability (FH535 + Phenformin; first compound 0.04 µM)
NCI-H1734 | 0.458 | 0.523 | 0.489 | 0.416 | 0.507 | 0.476 | 0.431 | 1.01 | 1.14 | 0.955 | 0.935 | 0.394 | 0.373 | 0.269 | 0.651 | 0.715 | 0.693 | 0.617 |  | 
NCI-H1755 | 0.341 | 0.449 | 0.421 | 0.415 | 0.46 | 0.404 | 0.422 | 1.04 | 0.985 | 0.944 | 0.949 | 0.627 | 0.558 | 0.494 | 0.941 | 0.897 | 0.853 | 0.867 | 0.353 | 0.539
NCI-H1792 | 0.251 | 0.289 | 0.317 | 0.256 | 0.761 | 0.701 | 0.543 | 0.837 | 0.948 | 0.866 | 0.673 | 0.358 | 0.267 | 0.235 | 0.64 | 0.73 | 0.664 | 0.53 | 0.661 | 0.216
NCI-H1793 | 0.344 | 0.401 | 0.313 | 0.301 | 0.342 | 0.296 | 0.339 | 0.525 | 0.575 | 0.641 | 0.696 | 0.256 | 0.278 | 0.211 | 0.597 | 0.721 | 0.618 | 0.541 | 0.321 | 0.39
NCI-H1915 | 0.732 | 0.903 | 0.835 | 0.77 | 0.306 | 0.287 | 0.3 | 0.867 | 0.826 | 0.852 | 0.795 | 0.385 | 0.309 | 0.292 | 1 | 1.07 | 1.05 | 0.738 | 0.292 | 0.339
NCI-H1944 |  | 0.37 | 0.34 | 0.344 | 0.209 | 0.222 | 0.204 |  | 0.777 | 0.668 | 0.754 | 0.205 | 0.161 | 0.109 |  | 0.858 | 0.848 | 0.837 | 0.179 | 0.17
NCI-H1975 | 0.274 | 0.274 | 0.296 | 0.244 | 0.341 | 0.263 | 0.294 | 0.863 | 0.748 | 0.715 | 0.73 | 0.402 | 0.35 | 0.256 | 0.614 | 0.682 | 0.607 | 0.487 | 0.304 | 0.384
NCI-H1993 | 0.679 | 0.747 | 0.769 | 0.709 | 0.597 | 0.474 | 0.427 | 0.676 | 0.781 | 0.729 | 0.714 | 0.495 | 0.533 | 0.524 | 0.629 | 0.78 | 0.662 | 0.596 | 0.526 | 0.415
NCI-H2009 | 0.753 | 0.87 | 0.724 | 0.763 | 0.307 | 0.269 | 0.277 | 0.82 | 0.859 | 0.853 | 0.656 | 0.447 | 0.402 | 0.179 | 1.15 | 1.16 | 1.17 | 0.959 | 0.256 | 0.486
NCI-H2023 | 0.209 | 0.226 | 0.252 | 0.231 | 0.616 | 0.49 | 0.459 | 0.671 | 0.846 | 0.919 | 0.738 | 0.375 | 0.314 | 0.191 | 0.659 | 0.629 | 0.686 | 0.604 | 0.601 | 0.384
NCI-H2085 | 0.407 | 0.568 | 0.481 | 0.486 | 0.174 | 0.284 | 0.217 | 0.744 | 0.686 | 0.692 | 0.573 | 0.65 | 0.585 | 0.451 | 0.959 | 0.977 | 0.941 | 0.675 | 0.271 | 0.687
NCI-H2087 | 0.885 | 0.885 | 0.731 | 0.52 | 0.711 | 0.714 | 0.675 | 0.918 | 0.825 | 0.868 | 0.6 | 0.398 | 0.286 | 0.155 | 1.11 | 1.04 | 0.887 | 0.613 | 0.685 | 0.425
NCI-H2126 | 0.472 | 0.497 | 0.472 | 0.425 | 0.573 | 0.49 | 0.292 | 0.734 | 0.679 | 0.696 | 0.676 | 0.53 | 0.457 | 0.348 | 0.744 | 0.744 | 0.718 | 0.626 | 0.598 | 0.525
NCI-H2170 | 0.255 | 0.418 | 0.315 | 0.285 | 0.611 | 0.429 | 0.625 | 0.26 | 0.332 | 0.265 | 0.254 | 0.416 | 0.319 | 0.28 | 0.853 | 0.965 | 0.784 | 0.769 | 0.664 | 0.394
NCI-H2228 | 0.327 | 0.416 | 0.369 | 0.305 | 0.502 | 0.552 | 0.402 | 0.574 | 1.15 | 1.2 | 0.927 | 0.377 | 0.288 | 0.224 | 0.687 | 0.669 | 0.911 | 0.63 | 0.49 | 0.241
NCI-H2347 | 0.484 | 0.591 | 0.639 | 0.726 | 0.292 | 0.294 | 0.261 | 0.979 | 0.664 | 0.971 | 0.781 | 0.332 | 0.425 | 0.27 | 1.01 | 1.09 | 0.966 | 0.837 | 0.298 | 0.409
